Laboratory results published in the supplement of paper PMC13380429.

Columns and labels:
Conditions in all cases: 72 h
Caco-2 [1] = test: cell viability relative to DMSO; higher = less toxic
Calu-3 [2] = test: as above
HepG2 [3] = test: as above
U2OS [4] = test: as above
Vero E6 [5] = test: as above
Caco-2 [6] = test: relative viability EC50 (midpoint between 100% and the lowest measured viability); higher = less toxic
Calu-3 [7] = test: as above
HepG2 [8] = test: as above
U2OS [9] = test: as above
Vero E6 [10] = test: as above
Caco-2 [11] = test: drug sensitivity score (DSS) for viability; higher = more toxic; extreme values may be limits of the assay
Calu-3 [12] = test: as above
HepG2 [13] = test: as above
U2OS [14] = test: as above
Vero E6 [15] = test: as above

Compound	cell viability (Caco-2 [1]; 1 nM) [%]	cell viability (Caco-2 [1]; 10 nM) [%]	cell viability (Caco-2 [1]; 100 nM) [%]	cell viability (Caco-2 [1]; 1000 nM) [%]	cell viability (Caco-2 [1]; 10000 nM) [%]	cell viability (Calu-3 [2]; 1 nM) [%]	cell viability (Calu-3 [2]; 10 nM) [%]	cell viability (Calu-3 [2]; 100 nM) [%]	cell viability (Calu-3 [2]; 1000 nM) [%]	cell viability (Calu-3 [2]; 10000 nM) [%]	cell viability (HepG2 [3]; 1 nM) [%]	cell viability (HepG2 [3]; 10 nM) [%]	cell viability (HepG2 [3]; 100 nM) [%]	cell viability (HepG2 [3]; 1000 nM) [%]	cell viability (HepG2 [3]; 10000 nM) [%]	cell viability (U2OS [4]; 1 nM) [%]	cell viability (U2OS [4]; 10 nM) [%]	cell viability (U2OS [4]; 100 nM) [%]	cell viability (U2OS [4]; 1000 nM) [%]	cell viability (U2OS [4]; 10000 nM) [%]	cell viability (Vero E6 [5]; 1 nM) [%]	cell viability (Vero E6 [5]; 10 nM) [%]	cell viability (Vero E6 [5]; 100 nM) [%]	cell viability (Vero E6 [5]; 1000 nM) [%]	cell viability (Vero E6 [5]; 10000 nM) [%]	relative viability EC50 (Caco-2 [6]) [µM]	relative viability EC50 (Calu-3 [7]) [µM]	relative viability EC50 (HepG2 [8]) [µM]	relative viability EC50 (U2OS [9]) [µM]	relative viability EC50 (Vero E6 [10]) [µM]	drug sensitivity score (Caco-2 [11])	drug sensitivity score (Calu-3 [12])	drug sensitivity score (HepG2 [13])	drug sensitivity score (U2OS [14])	drug sensitivity score (Vero E6 [15])
CCCn1c(=O)c2[nH]c(-c3cnn(Cc4cccc(C(F)(F)F)c4)c3)nc2n(CC)c1=O [GS-6201]	98.5	104	105	108	100	103	109	96.3	96.1	97.4	106	91.6	104	94.2	96.8	96.9	101	96.3	105	100	98.5	96.1	96.5	97.8	104	> 10	> 10	> 10	> 10	> 10	0	0	0	0	0
O=C(O)CNC(=O)c1c(O)c2ccccc2n(Cc2ccccc2)c1=O [IOX2]	95.4	97.1	92	102	93.2	87	88	85.8	96	87.4	108	106	108	93.9	106	96.2	102	94.8	98.5	95.6	104	99.7	102	106	98.4	> 10	> 10	> 10	> 10	> 10	0	0	0	0	0
CCOc1ccc(Nc2nc(-c3c(C)nc4ccccn34)cs2)cc1 [JK-184]	102	96.9	91.3	57.4	33.2	101	90.5	103	57.6	39.4	94.9	99.5	90.6	86.9	40.1	106	100	79.9	26.9	19.7	98.3	97.6	77.8	31.3	29.5	0.578	0.715	1.68	0.209	0.152	9.2	8.3	5.3	16	15.5
O=C1Nc2ccccc2C12OCC1(CO2)COC2(OC1)C(=O)Nc1ccccc12 (stereo not given) [JW-67]	87.2	92.5	91.8	93.2	88.1	90.8	92.1	103	87.2	85.3	97.1	98.6	93.6	98.4	105	97.6	97.5	102	94.6	92.5	88.4	103	91.2	90.5	86	> 10	> 10	> 10	> 10	> 10	0	0.1	0	0	0.1
CC(C)n1nc(-c2ccc3oc(N)nc3c2)c2c(N)ncnc21 [MLN0128]	102	72	45.2	26.1	20.1	88.6	61.2	31.5	28.4	22.8	106	91.9	32.4	26.6	12.9	100	92.1	35	18.4	12	97.9	93.5	48.7	35.6	16.5	0.0309	0.0095	0.0449	0.049	0.0855	23.2	27.5	24.6	24.4	19.7
OC[C@H]1O[C@@H](n2cnc3c(NC4CCCC4)ncnc32)[C@H](O)[C@@H]1O [N6-cyclopentyladenosine]	92.8	99.7	109	104	116	108	96.6	94	102	100	112	95.6	99.1	92.7	100	97.7	98.8	98.2	102	112	92.4	91.4	92.2	93.9	102	> 10	> 10	> 10	> 10	> 10	0	0	0	0	0
COc1ccccc1N1CCN(CCCCN2C(=O)c3ccccc3C2=O)CC1 [NAN-190]	99.7	85.8	99.2	86.6	94.8	95.5	94.3	107	101	102	91.6	108	94	109	103	103	100	101	94.7	101	99.4	94.5	91.5	94.3	103	> 10	> 10	> 10	> 10	> 10	0	0	0	0	0
COc1cc(C#N)ccc1S(=O)(=O)Nc1ccc2c(c1)cc(C)c(=O)n2C [NI-57]	99.1	97.4	94.8	91.1	83.5	98.7	110	101	101	104	106	114	102	94.1	85.3	101	98.2	101	98.5	98.9	98.7	103	99.6	95.7	96	> 10	> 10	> 10	> 10	> 10	0.6	0	0.7	0	0
O=C(Nc1cc(C(F)(F)F)cc(C(F)(F)F)c1)Nc1c(Br)cc(Br)cc1-c1nnn[nH]1 [NS-5806]	93.7	97.8	97.1	98.2	91.7	94.2	95.4	95.3	98.2	87.9	107	95.3	106	96.6	108	98.6	103	94.6	105	98.9	98.8	99.2	105	102	102	> 10	> 10	> 10	> 10	> 10	0	0	0	0	0
FC(F)(F)c1ccc(CNc2ccc(Cc3c[nH]c4ncccc34)cn2)cc1 [PLX647]	96	102	94.7	94.2	91.3	102	96.4	105	93.9	94.7	100	97.6	97.4	101	86.9	104	97.6	101	97.7	96.4	95.7	98.8	96.7	98.5	96.8	> 10	> 10	> 10	> 10	> 10	0	0	0.1	0	0
COc1cc(Br)c(Nc2nc(-c3c(C)nc4ncccn34)cs2)c(Br)c1 [PTC-209]	95.4	91.5	96.1	77.8	16.7	109	102	98.9	83.2	41.2	97.1	97.5	100	71.3	16.1	97.7	101	98.8	55.3	11.8	99.3	99.3	95.7	43.1	15.7	1.5	1.44	1.3	0.986	0.633	8	5.7	8.7	10.4	11.7
O=S(=O)(c1ccccc1F)N1CCOc2c(N3CCNCC3)cccc21 [R-1485]	89.3	98.6	93	96.3	95.6	96.5	100	98.8	100	90.8	102	101	101	93.6	96.7	96.2	96.5	93.6	97.6	92.8	105	105	99.2	97.3	108	> 10	> 10	> 10	> 10	> 10	0	0	0	0	0
Cc1nn(-c2ccccc2)c(C)c1/C=N/N1CCN(Cc2ccccc2)CC1 [SANT-1]	105	102	99.2	94	104	98.6	93.8	93.1	81.7	94.3	87.1	92.3	87	99.7	74.1	105	98.3	102	99.5	102	98.1	99.7	94.6	102	106	> 10	> 10	> 10	> 10	> 10	0	0.2	0	0	0
O=S(=O)(NCCCCCCc1ccccc1)c1cccc2c(Cl)cccc12 [SC-9]	91.8	89	87.2	101	94.5	102	108	102	96.8	101	105	96.6	103	108	119	94.6	97.9	92.7	97.4	99.5	99	101	96.8	102	107	> 10	> 10	> 10	> 10	> 10	0	0	0	0	0
CCCCCCCNS(=O)(=O)c1cccc2c(Cl)cccc12 [SC-10]	112	99.9	84.6	123	90.7	99.7	106	93.8	105	105	98.3	94.8	108	97.5	96.3	97.7	98.1	93.5	103	96.2	117	95.8	102	100	95.3	> 10	> 10	> 10	> 10	> 10	0	0	0	0	0
